In article PMC10151467, “Elucidating the origins of phycocyanobilin biosynthesis and phycobiliproteins” (Proceedings of the National Academy of Sciences of the …, 2023):

Experiments:
[1] = target: T1, POZ53552 (BBAG-1) (Methylovulum psychrotolerans, UniProt A0A2S5CS40); assay: absorption of purified holoprotein; format: binding; settings: covalent (CXRD motif); coexpressed with HO POZ53545 alone (Spam-545xc); poor chromophorylation
T1 construct: gene AADEFJLK_00580; synthetic gene in pET28 (pET28-RcaE backbone); coexpressed in E. coli with bilin biosynthesis plasmid; CXRD motif
T1 sequence (A0A2S5CS40 1-198): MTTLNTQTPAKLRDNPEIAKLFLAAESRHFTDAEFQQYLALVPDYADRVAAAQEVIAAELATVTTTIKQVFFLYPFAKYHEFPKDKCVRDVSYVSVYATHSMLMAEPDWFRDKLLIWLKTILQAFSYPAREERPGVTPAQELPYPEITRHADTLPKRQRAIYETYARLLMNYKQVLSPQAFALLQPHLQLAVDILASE

[2] = target: T2, POZ53557 (pre-1 FDBR) (Methylovulum psychrotolerans, UniProt A0A2S5CS30); assay: coexpression in E. coli with HO and Cph1 reporter; bilin identified on reporter; format: cell-based; settings: E. coli coexpression with HO POZ53545; inefficient reduction to PΦB
T2 construct: gene pcyA; replaces alt-PcyA in plasmid Spam-545/alt557, coexpressed in E. coli with HO and Cph1 reporter; not purified
T2 sequence (A0A2S5CS30 1-228): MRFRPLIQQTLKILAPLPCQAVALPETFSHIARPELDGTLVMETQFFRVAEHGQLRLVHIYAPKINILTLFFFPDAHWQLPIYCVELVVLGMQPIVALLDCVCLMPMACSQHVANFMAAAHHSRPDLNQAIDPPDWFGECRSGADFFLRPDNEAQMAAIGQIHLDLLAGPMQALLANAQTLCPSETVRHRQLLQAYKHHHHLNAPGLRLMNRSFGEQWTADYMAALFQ

[3] = target: T3, CAP_1521 (BBAG-2) (Chondromyces apiculatus, UniProt A0A017TC46); assay: absorption of purified holoprotein, acid denaturation, CD; format: binding; settings: covalent adduct; coexpressed in E. coli with HO POZ53545 and CAP_1520; 25 °C
T3 construct: coexpressed in E. coli with bilin biosynthesis plasmid
T3 sequence (A0A017TC46 1-259): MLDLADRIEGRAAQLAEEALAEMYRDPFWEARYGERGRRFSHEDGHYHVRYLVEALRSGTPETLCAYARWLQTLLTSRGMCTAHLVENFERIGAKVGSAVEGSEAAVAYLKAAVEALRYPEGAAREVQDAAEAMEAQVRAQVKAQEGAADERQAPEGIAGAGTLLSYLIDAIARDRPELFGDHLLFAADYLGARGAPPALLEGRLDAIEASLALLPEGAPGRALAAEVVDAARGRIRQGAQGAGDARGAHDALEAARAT

[4] = target: T4, Cph1 (N514 truncation) (Synechocystis sp. PCC 6803, UniProt Q55168); assay: absorption, photoconversion, acid denaturation; format: binding; settings: covalent adduct
T4 construct: N514 truncation construct sufficient for photoconversion, His-tagged, E. coli
T4 sequence (Q55168 1-514): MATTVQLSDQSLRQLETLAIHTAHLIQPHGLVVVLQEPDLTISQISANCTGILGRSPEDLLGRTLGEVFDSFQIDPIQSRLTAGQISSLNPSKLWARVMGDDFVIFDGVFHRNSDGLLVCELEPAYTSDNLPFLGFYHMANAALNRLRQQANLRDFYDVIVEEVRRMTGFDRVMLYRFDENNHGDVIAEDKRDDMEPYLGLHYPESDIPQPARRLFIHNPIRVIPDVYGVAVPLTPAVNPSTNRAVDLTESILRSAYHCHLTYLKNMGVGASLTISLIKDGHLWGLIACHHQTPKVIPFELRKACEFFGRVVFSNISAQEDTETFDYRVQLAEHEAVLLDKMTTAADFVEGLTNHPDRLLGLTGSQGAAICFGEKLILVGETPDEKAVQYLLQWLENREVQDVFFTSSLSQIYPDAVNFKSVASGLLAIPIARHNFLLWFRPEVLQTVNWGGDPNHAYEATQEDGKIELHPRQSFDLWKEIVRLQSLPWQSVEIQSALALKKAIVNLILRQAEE

[5] = target: T1, POZ53552 (BBAG-1); assay: absorption of purified holoprotein, acid denaturation; format: binding; settings: covalent (CXRD motif)

Structure (SMILES): C=CC1=C(C)C(=Cc2[nH]c(C=C3N=C(C=C4NC(=O)C(C)=C4C=C)C(C)=C3CCC(=O)O)c(CCC(=O)O)c2C)NC1=O [BV]
- absorption of purified holoprotein [1]: POZ53545 with no FDBR (synthesizing BV; plasmid Spam-545xc
- coexpression in E. coli with HO and Cph1 reporter; bilin identified on reporter [2]: POZ53557 appears to carry out inefficient reduction of BV to PΦB
- absorption of purified holoprotein, acid denaturation, CD [3]: Acid denaturation demonstrated that both possessed BV adducts rather than PΦB adducts

Structure (SMILES): C=CC1=C(C)C(CC2=NC(=Cc3[nH]c(C=C4NC(=O)C(C)C4=CC)c(C)c3CCC(=O)O)C(CCC(=O)O)=C2C)NC1=O (stereo not shown) [PEB]
- absorption, photoconversion, acid denaturation ([4]; coexpressed with Spam-545/8304, photoinactive population of mixed preparation): The photoinactive pink population was consistent with the known properties of the PEB adduct
- absorption of purified holoprotein, acid denaturation ([5]; coexpressed with Spam-545/8304, mixture of PΦB and PEB adducts): Denaturation analysis confirmed that these peaks reflected a mixture of PΦB and PEB

Structure (SMILES): C=CC1=C(C)C(=CC2=NC(=Cc3[nH]c(C=C4NC(=O)C(C)C4=CC)c(C)c3CCC(=O)O)C(CCC(=O)O)=C2C)NC1=O (stereo not shown) [PΦB]
- absorption, photoconversion, acid denaturation ([4]; coexpressed with Spam-545/CAP): confirmed that this preparation contained a PΦB chromophore
- absorption of purified holoprotein, acid denaturation ([5]; coexpressed with Spam-545/CAP, poor chromophorylation): BBAG-1 POZ53552 incorporated PΦB when coexpressed with Spam-545/CAP
